In ChEMBL document CHEMBL4819083, “Synthesis of pyranochalcone derivatives and their inhibitory effect on NF-κB activation” (Bioorg Med Chem Lett, 2021):
Activity calls are given as the source filed them.

Columns and labels:
[1] = system: RAW264.7; experiment: Inhibition of LPS-induced NO expression in mouse RAW264.7 cells at 2 to 20 uM preincubated for 2 hr followed by LPS stimulation and measured after 24 hrs; format: functional, cell-based; conditions: dose 2-20 µM
[2] = system: RAW264.7; experiment: Inhibition of LPS-induced IL-1beta mRNA expression in mouse RAW264.7 cells at 2 to 20 uM preincubated for 2 hr followed by LPS stimulation and measured after 6 hrs by qRT-PCR; format: functional, cell-based; conditions: dose 2-20 µM
[3] = system: RAW264.7; experiment: Inhibition of LPS-induced pro IL-1beta expression in mouse RAW264.7 cells at 2 to 20 uM preincubated for 2 hr followed by LPS stimulation and measured after 6 hrs by Western blot analysis; format: functional, cell-based; conditions: dose 2-20 µM
[4] = system: RAW264.7; experiment: Inhibition of LPS-induced iNOS expression in mouse RAW264.7 cells at 2 to 20 uM preincubated for 2 hr followed by LPS stimulation and measured after 6 hrs by Western blot analysis; format: functional, cell-based; conditions: dose 2-20 µM
[5] = system: BMDM; experiment: Inhibition of LPS-induced IL-1beta secretion in mouse BMDM cells at 2 to 20 uM preincubated for 2 hr followed by LPS stimulation and measured after 4 hrs; format: functional, cell-based; conditions: dose 2-20 µM
[6] = system: BMDM; experiment: Inhibition of LPS-induced IL-1beta mRNA expression in mouse BMDM cells at 5 to 10 uM preincubated for 2 hr followed by LPS stimulation and measured after 6 hrs by qRT-PCR; format: functional, cell-based; conditions: dose 5-10 µM
[7] = molecular target: T1, Inhibitor of nuclear factor kappa-B kinase subunit alpha (Mus musculus) (UniProt Q60680); experiment: Inhibition of IKKalpha in mouse RAW264.7 cells assessed as inhibition of LPS-induced IKK-alpha phosphorylation level pre-treated for 2 hrs followed by LPS stimulation and measured after 6 hrs by Western blot analysis; format: cell-based
T1 sequence (whole entry): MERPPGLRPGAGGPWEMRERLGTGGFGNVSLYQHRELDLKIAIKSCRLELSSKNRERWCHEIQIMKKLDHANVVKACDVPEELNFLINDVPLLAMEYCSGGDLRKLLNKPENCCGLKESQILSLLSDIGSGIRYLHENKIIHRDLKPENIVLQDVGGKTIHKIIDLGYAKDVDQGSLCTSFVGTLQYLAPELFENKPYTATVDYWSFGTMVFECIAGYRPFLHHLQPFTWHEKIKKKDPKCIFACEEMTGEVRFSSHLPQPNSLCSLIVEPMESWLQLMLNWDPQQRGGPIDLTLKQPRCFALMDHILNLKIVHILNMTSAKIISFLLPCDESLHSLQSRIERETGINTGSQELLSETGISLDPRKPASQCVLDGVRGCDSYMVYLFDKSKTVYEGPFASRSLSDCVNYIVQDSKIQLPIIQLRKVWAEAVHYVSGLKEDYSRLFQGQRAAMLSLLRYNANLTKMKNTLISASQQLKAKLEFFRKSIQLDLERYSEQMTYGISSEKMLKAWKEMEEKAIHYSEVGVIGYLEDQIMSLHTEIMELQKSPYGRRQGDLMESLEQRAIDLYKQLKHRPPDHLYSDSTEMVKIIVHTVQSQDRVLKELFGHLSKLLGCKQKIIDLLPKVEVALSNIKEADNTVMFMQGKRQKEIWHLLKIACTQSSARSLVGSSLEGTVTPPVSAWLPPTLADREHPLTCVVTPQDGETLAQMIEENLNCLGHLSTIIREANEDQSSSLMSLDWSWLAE

[8] = system: RAW264.7; experiment: Inhibition of NF-kappaB in mouse RAW264.7 cells assessed as reduction in LPS-induced p65 phosphorylation pre-treated for 2 hrs followed by LPS stimulation and measured after 6 hrs by Western blot analysis; format: cell-based
[9] = system: RAW264.7; experiment: Inhibition of MAPK signalling activation in mouse RAW264.7 cells assessed as reduction in LPS-induced p38 phosphorylation pre-treated for 2 hrs followed by LPS stimulation and measured after 6 hrs by Western blot analysis; format: cell-based
[10] = system: RAW264.7; experiment: Cytotoxicity against mouse RAW264.7 cells at > 50 uM; format: cell-based

C=CC(=O)Oc1ccc(/C=C/C(=O)c2c(OC)cc3c(c2OC(=O)C=C)CCC(C)(C)O3)cc1
active: inhibition [1] | inhibition [2] | inhibition [3] | inhibition [4] | inhibition [5] | inhibition [6] | inhibition [7] | inhibition [8] | inhibition [9]
Non-Toxic: Activity [10]
